Measurements reported in patent EP0052361A1, “Novel 16-membered macrolide compounds” (SANRAKU-OCEAN CO., LTD., priority 1980, dated 1982).
Values after ≈ are worked out from the molar mass of the structure shown. Like-named read-outs stand apart in the source and are kept apart here.

Assays:
[1] = test system: Klebsiella pneumoniae PCI602; assay: MIC by tube dilution method in brain heart infusion broth; assay type: cell-based
Experimental: (§1) The minimum growth inhibitory concentrations (MIC) of the compounds (I) against various microorganisms were measured by a tube dilution method in a brain heart infusion broth (pH 7.5) as a medium.

[2] = test system: Bacillus subtilis NRRL B-558; assay: as above; assay type: cell-based
Experimental: as §1

[3] = test system: Staphylococcus aureus MS9861; assay: as above; assay type: cell-based
Experimental: as §1

[4] = test system: Staphylococcus aureus 209P; assay: as above; assay type: cell-based
Experimental: as §1

[5] = test system: Mycoplasma gallisepticum KP-13; assay: as above; assay type: cell-based; settings: Mycoplasmoides gallisepticum
Experimental: as §1

[6] = test system: Corynebacterium bovis 1810; assay: as above; assay type: cell-based
Experimental: as §1

[7] = test system: Shigella dysenteriae JS 11910; assay: as above; assay type: cell-based; settings: JS11910, pH 7.5, read-out: Minimum growth inhibitory concentration
Experimental: as §1

[8] = test system: Staphylococcus aureus MS10225; assay: as above; assay type: cell-based
Experimental: as §1

[9] = test system: Escherichia coli NIHJ; assay: as above; assay type: cell-based
Experimental: as §1

[10] = test system: Sartina lutea PCI 1001; assay: as above; assay type: cell-based
Experimental: as §1

[11] = Stability on standing at room temperature; assay type: physicochemical; settings: left to stand at room temperature for one month
Description: Stable even when left to stand at room temperature for one month.

[12] = parameters: species or system mice; settings: mouse, in vivo, po
Experimental: • (2) Concentration in the blood • (2-1) The concentration of the antibiotic YT-3927 of formula (I-a) in the blood was measured by bioassay with […] lutea using mice. […] Then, periodically, the concentration of the antibiotic YT-3927 in the blood was measured. The peak of the blood concentration was noted 1.5 to 2 hours after the administration, and at the peak, the concentration was […]. In contrast, in the same experiment with tylosin, the peak was noted 1.5 to 2 hours later, but the concentration was less than one-fifth of that of the antibiotic YT-3927. • (2-2) The concentration of each of the antibiotic YT-3927 derivatives of formula (I-b) in the blood was measured by bioassay with […] lutea using mice. […] The concentration of the derivative (I-b) in the blood was periodically measured. The concentration of each of the compounds (I-b) 2 hours after the administration is shown in Table 3. [formula] • (3) Toxicity

[13] = Klebsiella pneumoniae, PCI602, pH 7.5, read-out: Antimicrobial activity (MIC) Klebsiella pneumonae PCI602
[14] = Bacillus subtilis, NRRLB558, pH 7.5, read-out: Antimicrobial activity (MIC) Bacillus subtilis NRRL B558
[15] = MS9861, pH 7.5, read-out: Antimicrobial activity (MIC) Staphylococcus aureus MS9861
[16] = Staphylococcus aureus, 209P, pH 7.5, read-out: Antimicrobial activity (MIC) Staphylococcus aureus 209P

| SMILES | MIC [1, 13] | MIC [2, 14] | MIC [3, 15] | MIC [4, 16] | other results |
| --- | --- | --- | --- | --- | --- |
| CCC1OC(=O)CC(O)C(C)C(OC2OC(C)C(OC3CC(C)(O)C(O)C(C)O3)C(N(C)C)C2O)C(CC=O)CC(C)C(=O)C=CC(C)=CC1C (centres unmarked) [Antibiotic YT-3927, antibiotic YT-3927] | 3.1 µg/mL (≈ 4.27 µM) | 0.4 µg/mL (≈ 0.551 µM) | 3.1 µg/mL (≈ 4.27 µM) | 0.4 µg/mL (≈ 0.551 µM) | MIC ([5]; KP13, pH 7.5, read-out: Minimum growth inhibitory concentration): 0.02 µg/mL (≈ 0.0276 µM); MIC ([6]; Corynebacterium bovis, 1810, pH 7.5, read-out: Minimum growth inhibitory concentration): 0.39 µg/mL (≈ 0.537 µM); MIC ([1]; Klebsiella pneumoniae, PCI602, pH 7.5, read-out: Minimum growth inhibitory concentration): 3.12 µg/mL (≈ 4.3 µM); MIC ([2]; Bacillus subtilis, NRRLB558, pH 7.5, read-out: Minimum growth inhibitory concentration): 0.39 µg/mL (≈ 0.537 µM); MIC [7]: 1.56 µg/mL (≈ 2.15 µM); MIC ([8]; Staphylococcus aureus, MS10225, pH 7.5, read-out: Minimum growth inhibitory concentration): 0.78 µg/mL (≈ 1.07 µM); MIC ([4]; Staphylococcus aureus, 209P, pH 7.5, read-out: Minimum growth inhibitory concentration): 0.39 µg/mL (≈ 0.537 µM); MIC ([9]; Escherichia coli, pH 7.5, read-out: Minimum growth inhibitory concentration): 25 µg/mL (≈ 34.4 µM); MIC ([10]; pH 7.5, read-out: Minimum growth inhibitory concentration): < 0.2 µg/mL; Stability [11]: Stable |
| CCC1OC(=O)CC(OC(C)=O)C(C)C(OC2OC(C)C(OC3CC(C)(OC(C)=O)C(OC(C)=O)C(C)O3)C(N(C)C)C2O)C(CC=O)CC(C)C(=O)C=CC(C)=CC1C (centres unmarked) [R1=COCH3; R2=COCH3; YR3=COCH3, 3,3",4"-triacetyl YT-3927] | 100 µg/mL (≈ 117 µM) | 0.4 µg/mL (≈ 0.469 µM) | 3.1 µg/mL (≈ 3.64 µM) | 1.6 µg/mL (≈ 1.88 µM) |  |
| CCC1OC(=O)CC(OC(C)=O)C(C)C(OC2OC(C)C(OC3CC(C)(O)C(OC(=O)CC(C)C)C(C)O3)C(N(C)C)C2O)C(CC=O)CC(C)C(=O)C=CC(C)=CC1C (centres unmarked) [R1=COCH3; R2=H; YR3=COCH2CH(CH3)2, 3-acetyl-4"-isovaleryl YT-3927] | 25 µg/mL (≈ 29.3 µM) | 0.8 µg/mL (≈ 0.939 µM) | 6.3 µg/mL (≈ 7.39 µM) | 0.4 µg/mL (≈ 0.469 µM) |  |
| CCC1OC(=O)CC(O)C(C)C(OC2OC(C)C(OC3CC(C)(OC(C)=O)C(OC(=O)CC(C)C)C(C)O3)C(N(C)C)C2O)C(CC=O)CC(C)C(=O)C=CC(C)=CC1C (centres unmarked) [R1=H; R2=COCH3; YR3=COCH2CH(CH3)2] | 25 µg/mL (≈ 29.3 µM) | 0.8 µg/mL (≈ 0.939 µM) | 1.6 µg/mL (≈ 1.88 µM) | 0.8 µg/mL (≈ 0.939 µM) |  |
| CCC1OC(=O)CC(O)C(C)C(OC2OC(C)C(OC3CC(C)(O)C(OC(=O)CC(C)C)C(C)O3)C(N(C)C)C2O)C(CC=O)CC(C)C(=O)C=CC(C)=CC1C (centres unmarked) [R1=H; R2=H; YR3=COCH2CH(CH3)2, 4"-isovaleryl YT-3927] | 6.3 µg/mL (≈ 7.78 µM) | 0.4 µg/mL (≈ 0.494 µM) | 1.6 µg/mL (≈ 1.98 µM) | 0.4 µg/mL (≈ 0.494 µM) |  |
| CC[C@H]1OC(=O)C[C@@H](O)[C@H](C)[C@@H](O[C@@H]2O[C@H](C)[C@@H](O[C@H]3C[C@@](C)(O)[C@@H](O)[C@H](C)O3)[C@H](N(C)C)[C@H]2O)[C@@H](CC=O)C[C@@H](C)C(=O)/C=C/C(C)=C/[C@@H]1CO[C@@H]1O[C@H](C)[C@@H](O)[C@@H](OC)[C@H]1OC [Tylosin, reference compound] |  |  |  |  | MIC ([5]; KP13, Mycoplasma gallisepticum KP-13, brain heart infusion broth pH 7.5, read-out: Minimum growth inhibitory concentration): 0.02 µg/mL (≈ 0.0218 µM); MIC ([6]; Corynebacterium bovis 1810, brain heart infusion broth pH 7.5, read-out: Minimum growth inhibitory concentration): < 0.2 µg/mL; MIC ([1]; Klebsiella pneumoniae PCI602, brain heart infusion broth pH 7.5, Table 2-1, read-out: Minimum growth inhibitory concentration): 25 µg/mL (≈ 27.3 µM); MIC ([1]; Klebsiella pneumoniae, PCI602, Table 2-2, brain heart infusion broth pH 7.5, read-out: Antimicrobial activity (MIC) Klebsiella pneumonae PCI602): 25 µg/mL (≈ 27.3 µM); MIC ([2]; Bacillus subtilis, NRRLB558, Table 2-2, brain heart infusion broth pH 7.5, read-out: Antimicrobial activity (MIC) Bacillus subtilis NRRL B558): 0.8 µg/mL (≈ 0.873 µM); MIC ([2]; NRRLB558, Bacillus subtilis NRRL B-558, brain heart infusion broth pH 7.5, Table 2-1, read-out: Minimum growth inhibitory concentration): 0.78 µg/mL (≈ 0.851 µM); MIC ([3]; MS9861, Table 2-2, brain heart infusion broth pH 7.5, read-out: Antimicrobial activity (MIC) Staphylococcus aureus MS9861): 6.3 µg/mL (≈ 6.88 µM); MIC [7]: 25 µg/mL (≈ 27.3 µM); MIC ([8]; Staphylococcus aureus MS10225 (resistant to tylosin), brain heart infusion broth pH 7.5, read-out: Minimum growth inhibitory concentration): 3.12 µg/mL (≈ 3.41 µM); MIC ([4]; Staphylococcus aureus 209P, brain heart infusion broth pH 7.5, Table 2-1, read-out: Minimum growth inhibitory concentration): 0.78 µg/mL (≈ 0.851 µM); MIC ([4]; Staphylococcus aureus, 209P, Table 2-2, brain heart infusion broth pH 7.5, read-out: Antimicrobial activity (MIC) Staphylococcus aureus 209P): 0.8 µg/mL (≈ 0.873 µM); MIC ([9]; Escherichia coli NIHJ, brain heart infusion broth pH 7.5, read-out: Minimum growth inhibitory concentration): 100 µg/mL (≈ 109 µM); MIC ([10]; Sartina lutea PCI 1001, brain heart infusion broth pH 7.5, read-out: Minimum growth inhibitory concentration): < 0.2 µg/mL; peak concentration in the blood as a fraction of that of the antibiotic YT-3927 [12]: less than one-fifth |

Continued by falling MIC [1, 13], values first:

| MIC [1, 13] | MIC [2, 14] | MIC [3, 15] | MIC [4, 16] | SMILES | other results |
| --- | --- | --- | --- | --- | --- |
| 6.3 µg/mL (≈ 6.85 µM) | < 0.2 µg/mL | 0.8 µg/mL (≈ 0.87 µM) | < 0.2 µg/mL | CCC1OC(=O)CC(O)C(C)C(OC2OC(C)C(OC3CC(C)(OC(C)=O)C(OC(=O)CSc4ccncc4)C(C)O3)C(N(C)C)C2O)C(CC=O)CC(C)C(=O)C=CC(C)=CC1C (centres unmarked) |  |
| 3.1 µg/mL (≈ 3.83 µM) | 0.4 µg/mL (≈ 0.494 µM) | 3.1 µg/mL (≈ 3.83 µM) | 1.6 µg/mL (≈ 1.98 µM) | CCC1OC(=O)CC(O)C(C)C(OC2OC(C)C(OC3CC(C)(O)C(OC4CCCCO4)C(C)O3)C(N(C)C)C2O)C(CC=O)CC(C)C(=O)/C=C/C(C)=C/C1C (centres unmarked) |  |
| 1.6 µg/mL (≈ 1.89 µM) | < 0.2 µg/mL | 0.8 µg/mL (≈ 0.947 µM) | < 0.2 µg/mL | CCC1OC(=O)CC(O)C(C)C(OC2OC(C)C(OC3CC(C)(O)C(OC(=O)Cc4cccnc4)C(C)O3)C(N(C)C)C2O)C(CC=O)CC(C)C(=O)C=CC(C)=CC1C (centres unmarked) |  |
